Measured values reported in ChEMBL document CHEMBL1201862, “PubChem BioAssay data set” (2004).
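Step 1: Grow cells in 96-well plates. Step 2: Expose to compound for 48 hours at 5 concentrations. Step 3: Interpolate endpoints linearly; if unreached, use highest concentration. The concentration for 50% growth inhibition is given as GI50.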 The source made the active and inactive calls. Rule as the data show it: active = GI50 up to about 1.1 µM and inactive = higher.

Legend:
Test in all cases: growth of human tumour cells (NCI), 48 h
[1] = system: Hs-578T
[2] = system: SK-MEL-2
[3] = system: DU-145
[4] = system: CCRF-CEM
[5] = system: MCF7
[6] = system: HCT-116
[7] = system: HOP-62
[8] = system: HT-29
[9] = system: COLO 205
[10] = system: K562
[11] = system: SW-620
[12] = system: UACC-62
[13] = system: ACHN
[14] = system: A498
[15] = system: SF-295
[16] = system: NCI-H460
[17] = system: SK-MEL-5
[18] = system: 786-0
[19] = system: KM12
[20] = system: HCC 2998

Measured: GI50

O/N=C1\Nc2ccccc2OCc2cc(Br)c(Br)cc2COc2ccccc2N\C1=N/O
inactive: [1] 31.7 µM | [2] 19.5 µM | [3] 13.6 µM | [4] 4.98 µM | [5] 6.81 µM | [6] 6.12 µM | [7] 15.5 µM | [8] 7.85 µM | [9] 7.08 µM | [10] 4.85 µM | [11] 11.8 µM | [12] 15.3 µM | [13] 5.97 µM | [14] 17.5 µM | [15] 16.5 µM | [16] 13.2 µM | [17] 12.9 µM | [18] 10 µM | [19] 8.51 µM | [20] 7.71 µM

CCN1CCC(O)(/C=C/c2ccc(C(C)C)cc2)C(C(=O)/C=C/c2ccc(C(C)C)cc2)C1 (stereo not given)
inactive: [1] 2.31 µM | [2] 3.08 µM | [3] 3.34 µM | [4] 1.16 µM | [5] 2.46 µM | [6] 1.75 µM | [7] 3.52 µM | [8] 2.24 µM | [9] 2.45 µM | [10] 2.72 µM | [11] 2.67 µM | [12] 4.15 µM | [13] 1.75 µM | [14] 6.38 µM | [15] 2.9 µM | [16] 1.53 µM | [17] 4.42 µM | [18] 1.71 µM | [19] 1.85 µM | [20] 1.81 µM

O=C(OCc1ccccc1)N(CCCCN(CCCNC(=O)C(F)(F)F)C(=O)OCc1ccccc1)CCCNC(=O)C(F)(F)F
inactive: [1] > 100 µM | [2] > 100 µM | [3] > 100 µM | [4] > 100 µM | [5] > 100 µM | [6] > 100 µM | [7] > 100 µM | [8] > 28.4 µM | [9] > 88.1 µM | [10] > 100 µM | [11] > 100 µM | [12] > 100 µM | [13] 23.9 µM | [14] > 100 µM | [15] > 100 µM | [16] > 83.6 µM | [17] > 36.8 µM | [18] > 100 µM | [19] > 100 µM | [20] > 100 µM

CC12NC(=C(C#N)C#N)C(C#N)=C3NC(N)=C(C#N)C(=C31)Oc1ccccc12 (stereo not given)
inactive: [1] 6.46 µM | [2] 6.7 µM | [3] 10.1 µM | [4] > 29 µM | [5] > 35.6 µM | [6] 4.53 µM | [7] 5.04 µM | [8] 7.06 µM | [9] 4.71 µM | [10] > 43.2 µM | [11] > 26.6 µM | [12] 15 µM | [13] > 25 µM | [14] > 30.9 µM | [15] 20 µM | [16] 31 µM | [17] 5.05 µM | [18] 18.5 µM | [19] 3.77 µM | [20] 27.4 µM
